PubChem BioAssay AID588447 (Southern Research Specialized Biocontainment Screening …, 2011)
Several values for one entry are separate records, joined by “and”; a condition that tells them apart may be missing. Equal entries are not always repeated. Activity calls are given as the source filed them. How the calls were made is not given here.

Key:
[1] = test system: Mycobacterium tuberculosis H37Rv growth, 7H9 media; experiment: Mycobacterium tuberculosis growth inhibition, dose response, 7H9 media, purified and synthesized compounds, set 8 (AID 588447); conditions: for IC50: measured here: IC50 growth inhibition replicates
[2] = as above; conditions: Mycobacterium tuberculosis H37Rv growth, 7H9 media

| SMILES | IC50 [1] | further results |
| --- | --- | --- |
| CC1CCCN(C(=O)C2CCC(CNc3c(N4CCCCC4)c(=O)c3=O)CC2)C1 (centres undefined) | 39.8 µM | – |
| COC(=O)CSc1ncnc2c1cnn2-c1ccc(C)cc1C | 4.77 µM | IC90 [1]: 5.94 µM |
| CC(C)OC(=O)CSc1ncnc2c1cnn2-c1ccccc1 | 34.1 µM | – |
| O=C(c1ccc(CNc2c(N3CCCC3)c(=O)c2=O)cc1)N1CCc2ccccc2C1 | 7.01 µM | – |
| CCOC(=O)CSc1ncnc2c1cnn2-c1ccccc1 | 26.8 µM | – |
| CC(=O)c1ccc(NC(=O)c2ccc(CNc3c(N4CCOCC4)c(=O)c3=O)cc2)cc1 | 75.7 µM | – |
| CCOC(=O)N1CCC(Nc2c(Nc3cccc(CC)c3)c(=O)c2=O)CC1 | 61.5 µM | IC90 [1]: 87.5 µM |
| CC1CC(C)CN(C(=O)C2CCC(CNc3c(N4CCCCC4)c(=O)c3=O)CC2)C1 (centres undefined) | 19.9 µM and 26.3 µM | – |
| O=C(NCCc1ccc(Cl)cc1)C1CCC(CNc2c(N3CCCCC3)c(=O)c2=O)CC1 (centres undefined) | 56.3 µM | – |
| O=C(NCCc1ccc(Cl)cc1)c1ccc(CNc2c(N3CCOCC3)c(=O)c2=O)cc1 | 8.33 µM and 7.05 µM | – |
| Cc1cccc(N2CCN(C(=O)c3ccc(CNc4c(N5CCC(C)CC5)c(=O)c4=O)cc3)CC2)c1C | 24.6 µM | growth inhibition ([2]; at 75 µM (top of the series)): 15.6% (inactive) |
| CC1CCCN(C(=O)c2ccc(CNc3c(N4CCCCC4)c(=O)c3=O)cc2)C1 (centres undefined) | 7 µM | – |
| O=C(c1ccc(CNc2c(N3CCOCC3)c(=O)c2=O)cc1)N1CC=C(c2ccccc2)CC1 | 2.54 µM | IC90 [1]: 7.8 µM |
| CCOc1ccc(NC(=O)c2ccc(CNc3c(N4CCCC4)c(=O)c3=O)cc2)cc1 | – | growth inhibition ([2]; at 100 µM (top of the series)): -0.71% (inactive) |
| CCOC(=O)CSc1ncnc2c1cnn2-c1ccc(C)cc1C | 4.29 µM | IC90 [1]: 5.85 µM |
| Cc1cccc(N2CCN(C(=O)c3ccc(CNc4c(N5CCC(C)CC5)c(=O)c4=O)cc3)CC2C)c1 (centres undefined) | 63.7 µM | – |
| CC1CC(C)CN(C(=O)c2ccc(CNc3c(N4CCCC4)c(=O)c3=O)cc2)C1 (centres undefined) | 12.4 µM | – |
| CCC(C)NC(=O)CSc1nc2ccccc2c(=O)[nH]1 (centres undefined) | 5.98 µM | IC90 [1]: 8.3 µM |
| CC1CCN(C(=O)c2ccc(CNc3c(N4CCCC4)c(=O)c3=O)cc2)CC1 | 9.07 µM | – |
| O=C(C1CCC(CNc2c(N3CCCCC3)c(=O)c2=O)CC1)N1CCCCC1 (centres undefined) | 30.8 µM | – |
| O=C(c1ccc(CNc2c(N3CCCC3)c(=O)c2=O)cc1)N1CC=C(c2ccccc2)CC1 | 7.68 µM and 4.36 µM | IC90 [1]: 25.3 µM |
| COc1ccc(N2CCN(C(=O)c3ccc(CNc4c(N5CCOCC5)c(=O)c4=O)cc3)CC2)cc1 | 10.7 µM and 9.56 µM | – |
